In US5541232A, “Treatment of multidrug resistant diseases” (Chemex Pharmaceuticals, Inc., priority 1994, dated 1996):

Experiments:
[1] = system: human breast adenocarcinoma; conditions: cited from earlier work
P-glycoprotein [2] = conditions: cited from earlier work
[3] = system: GRC-1 multidrug resistant human cervical carcinoma cells; assay: inhibition of colony formation, GRC-1; type: cell-based
Text: (§1) To investigate whether masoprocol modulates multidrug resistance, a line of multidrug resistant (GRC-1) cells which were derived from parenteral drug sensitive human cervical carcinoma (KB-3-1) cells by transfection of the mdr1 genes were employed. Such transfection was by the method set forth in Choi, et al., Cell 53:519-529, 1989. These cell lines differ only with respect to the over-expression of P-glycoprotein. These tests were designed to examine whether masoprocol modulates tumor cell drug resistance by interfering with P-glycoprotein function. […] See, Regulation of initial vinblastine influx by P-glycoprotein, Shalinsky, et al., cited above.
Masoprocol was provided by Chemex Pharmaceuticals, Inc. (Fort Lee, N.J.). Tritiated vinblastine ([^3 H]VBL) (10 Ci mmol^-1) was purchased from Moravek Biochemicals (Brea, Calif.), stored in the dark at -80° C. and protected from light during the experiments. Dipyridamole (DPM) was provided by Boerhinger Ingelheim Pharmaceuticals, Inc. (Ridgefield, Conn.).
Drug-sensitive KB-3-1 cells and the drug resistant subline (KB-GRC-1) were obtained from Dr. Igor Roninson (University of Illinois, College of Medicine, Chicago, Ill.). Cells were maintained in Dulbecco's modified Eagle's medium supplemented with 10% fetal bovine serum and 2 mM glutamine. The KB-GRC-1 cells were maintained in medium supplemented with 6 ng/ml colchicine.
(§2) First, cells which had been seeded at 200-300 cells/dish were incubated in media containing masoprocol or VBL. After an incubation period of 10 days at 37° C. the cells were fixed with methanol and stained with Giemsa, and the number of colonies per dish were counted and expressed as a percent of the number of colonies in control conditions. […] Parenthesis indicate standard deviations determined from replicate experiments.

[4] = system: KB-3-1 human cervical carcinoma cells; assay: inhibition of colony formation, KB-3-1; type: cell-based; conditions: KB 3-1, 240 h, read-out: IC50 (VBL), 50% inhibition of colony formation
Text: as §1
Masoprocol was provided by Chemex Pharmaceuticals, Inc. (Fort Lee, N.J.). Tritiated vinblastine ([^3 H]VBL) (10 Ci mmol^-1) was purchased from Moravek Biochemicals (Brea, Calif.), stored in the dark at -80° C. and protected from light during the experiments. […]
as §2

P-glycoprotein [5] = conditions: known, Shalinsky et al.; cited from earlier work
WI-38 Lung Fibroblasts = assay: in vitro cytotoxicity, normal cells; type: cell-based; conditions: Homo sapiens
Lung (LX-1) cancer cells = assay: in vitro cytotoxicity anti tumor activity; type: cell-based; conditions: 1 h
SNB Glioblastoma cells = assay: in vitro cytotoxicity anti tumor activity; type: cell-based
[6] = system: Lung (NCI-H23) cancer cells; assay: in vitro cytotoxicity anti tumor activity; type: cell-based; conditions: Homo sapiens
[7] = system: Detroit 551 Skin Fibroblasts; assay: in vitro cytotoxicity, normal cells; type: cell-based; conditions: Homo sapiens
[8] = system: Hs 68 Newborn Foreskin Fibroblasts; assay: in vitro cytotoxicity, normal cells; type: cell-based; conditions: Homo sapiens
LOX-IMVI Melanoma cells = assay: in vitro cytotoxicity anti tumor activity; type: cell-based; conditions: Homo sapiens
DLD-1 Colon cancer cells = assay: in vitro cytotoxicity anti tumor activity; type: cell-based; conditions: Homo sapiens
[9] = system: OVCAR3 ovarian cancer cells; assay: in vitro cytotoxicity anti tumor activity; type: cell-based; conditions: Homo sapiens
CAK-1 Renal cancer cells = assay: in vitro cytotoxicity anti tumor activity; type: cell-based
[10] = system: MCF7/0 human breast adenocarcinoma cells; assay: flow cytometry P-glycoprotein function assay of doxorubicin efflux, MCF7/0 (doxorubicin sensitive); type: cell-based
Description: (§3) The following tests were preformed to determine the effect of NDGA on efflux of doxorubicin (hereinafter sometimes referred to as DOX) for doxorubicin sensitive MCF7/0 and doxorubicin resistant MCF7/ADR human breast adenocarcinoma cells in vitro.
(§4) The cells were exposed to 50 μg/ml NDGA for 24 hrs prior to loading with DOX (doxorubicin) at 37° C. […] PBS. Flow analysis of cell efflux of DOX was collected over 30 minutes using the time parameter.
(§5) Procedure for P-Glycoprotein (PGP) Function Assay of Doxorubicin Efflux is shown hereunder.
(§6) 1. […] Store at room temperature.
(§7) 2. Doxorubicin (GFW=580) Make a solution of doxorubicin to contain 10 μg/ml. Store frozen at 0° C.
(§8) 4. NDGA (MW=302.36) Make a solution of NDGA to contain 50 μg/ml. Store frozen at 0° C.
(§9) 5. MCF7/0 (Doxorubicin sensitive) and MCF7/ADR (Doxorubicin resistant), human breast adenocarcinoma cell lines.
(§10) 1. Make up 2×10^6 cells per ml in PBS. Expose 1 ml of cells to 50 μg of NDGA for 24 hrs at 37° C. prior to loading with Doxorubicin.
(§11) 2. Add 1 ml of 10 μg/ml doxorubicin, mix and divide into two aliquots.
(§12) 4. Incubate both tubes at 37° C. for 30 minutes.
(§13) 5. Centrifuge the tubes at 37° C. for 5 minutes on a fast spin to pellet cells. Resuspend in 1 ml of buffer.
(§14) 6. Run immediately on the flow cytometer. Excitation 488 nm, emission 560-600 nm. Collect forward and 90° side scatter and PMT4 linear scale. Collect 10,000-50,000 events and calculate the mean channel fluorescence (MCF) for PMT4.
(§15) 7. Run both samples as close together as possible, and avoid prolonged exposure to room temperature.

[11] = system: MCF7/ADR human breast adenocarcinoma cells; assay: flow cytometry P-glycoprotein function assay of doxorubicin efflux, MCF7/ADR (doxorubicin resistant); type: cell-based
Description: as §3, §4, §5, §6, §7, §8, §9, §10, §11, §12, §13, §14, §15

[12] = No NDGA, DOX + Verapamil (30 μl of a 1 mM solution)
[13] = No NDGA, DOX alone, 5 μg×30 min, 37° C.
[14] = RX NDGA (50 μg/ml, 24 hrs), DOX
[15] = RX NDGA (50 μg/ml, 24 hrs), DOX + Verapamil

Compound: Oc1ccc(CCCCc2ccc(O)c(O)c2O)cc1O [1-(3',4'-dihydroxyphenyl)-4-(2',3',4'-trihydroxphenyl)-butane]
- effectiveness against human breast adenocarcinoma [1]: particularly effective

Compound: CC(=O)Oc1ccc(C[C@@H](C)[C@@H](C)Cc2ccc(OC(C)=O)c(OC(C)=O)c2)cc1OC(C)=O [NDGA Tetracetate]
- effectiveness against human breast adenocarcinoma [1]: particularly effective

Compound: Oc1ccc(CCCCc2ccccc2)cc1O [1-(3',4'-dihydroxyphenyl)-4-phenyl butane]
- effectiveness against human breast adenocarcinoma [1]: particularly effective

Compound: CC[C@]1(O)C[C@@H]2CN(CCc3c([nH]c4ccccc34)[C@@](C(=O)OC)(c3cc4c(cc3OC)N(C)[C@H]3[C@@](O)(C(=O)OC)[C@H](OC(C)=O)[C@]5(CC)C=CCN6CC[C@]43[C@@H]65)C2)C1 [VBL]
- steady state accumulation and efflux in cells overexpressing mdr1 (P-glycoprotein [2]): decreased steady state accumulation and increased efflux
- sensitivity of GRC-1 compared with KB-3-1 cells ([3]; GRC-1 vs KB-3-1): large differences in sensitivity
- IC50 ([3]; Homo sapiens, 240 h, read-out: IC50 (VBL), 50% inhibition of colony formation): 52.2 nM
- IC50 [4]: 1.38 nM
- P-glycoprotein substrate (P-glycoprotein [5]): known to be a P-glycoprotein substrate

Compound: C[C@@H](Cc1ccc(O)c(O)c1)[C@@H](C)Cc1ccc(O)c(O)c1 (relative stereo) [d,l NDGA]
- effectiveness against human breast adenocarcinoma [1]: particularly effective

Compound: Oc1ccc(CCCCc2cc(O)c(O)c(O)c2)cc1O [1-(3',4'-dihydroxyphenyl)-4(3',4',5'-trihydroxyphenyl)-butane]
- effectiveness against human breast adenocarcinoma [1]: particularly effective

Compound: CCC(=O)Oc1ccc(C[C@@H](C)[C@@H](C)Cc2ccc(OC(=O)CC)c(OC(=O)CC)c2)cc1OC(=O)CC [NDGA Tetrapropionate]
- effectiveness against human breast adenocarcinoma [1]: particularly effective

Compound: COc1cc(CCCCc2ccc(O)c(OC)c2)ccc1O [1,4-bis(3'-methoxy-4'-hydroxyphenylbutane]
- effectiveness against human breast adenocarcinoma [1]: particularly effective

Compound: COc1cc(CC(C)C(C)Cc2ccc(O)c(OC)c2)ccc1O (centres unmarked) [1,4-bis(3'-methoxy-4'-hydroxyphenyl)-2,3-dimethyl butane]
- effectiveness against human breast adenocarcinoma [1]: particularly effective

Compound: COc1cccc2c1C(=O)c1c(O)c3c(c(O)c1C2=O)C[C@@](O)(C(=O)CO)C[C@@H]3O[C@H]1C[C@H](N)[C@H](O)[C@H](C)O1 [Doxorubicin]
- IC50 (WI-38 Lung Fibroblasts; WI-38, 1 h): 10 µM
- IC50 (WI-38 Lung Fibroblasts; WI-38, 70 h): 0.6 µM
- IC50 (Lung (LX-1) cancer cells): 26 µM
- IC50 (SNB Glioblastoma cells; 1 h): 700 nM
- IC50 (SNB Glioblastoma cells; 70 h): 30 nM
- IC50 ([6]; NCI-H23, 1 h): 9.3 µM
- IC50 ([6]; NCI-H23, 70 h): 0.15 µM
- IC50 ([7]; Detroit 551, 1 h): 3.2 µM
- IC50 ([7]; Detroit 551, 70 h): 5.5 µM
- IC50 ([8]; Hs68, 1 h): 11.6 µM
- IC50 ([8]; Hs68, 70 h): 0.12 µM
- IC50 (LOX-IMVI Melanoma cells; 1 h): 4800 nM
- IC50 (LOX-IMVI Melanoma cells; 70 h): 90 nM
- IC50 (DLD-1 Colon cancer cells; DLD-1, 1 h): 3700 nM
- IC50 (DLD-1 Colon cancer cells; DLD-1, 70 h): 420 nM
- IC50 ([9]; OVCAR-3, 1 h): 13.8 µM
- IC50 ([9]; OVCAR-3, 70 h): 0.7 µM
- IC50 (CAK-1 Renal cancer cells; 1 h): 3800 nM
- IC50 (CAK-1 Renal cancer cells; 70 h): 110 nM
- Mean channel fluorescence (loading of DOX in cells) [10, 12]: 312.8
- Mean channel fluorescence (loading of DOX in cells) [10, 13]: 318.7
- Mean channel fluorescence (loading of DOX in cells) [10, 14]: 460.4
- Mean channel fluorescence (loading of DOX in cells) [10, 15]: 435.6
- Mean channel fluorescence (loading of DOX in cells) [11, 12]: 309.9
- Mean channel fluorescence (loading of DOX in cells) [11, 13]: 227.4
- Mean channel fluorescence (loading of DOX in cells) [11, 14]: 285.6
- Mean channel fluorescence (loading of DOX in cells) [11, 15]: 365.4

Compound: Oc1ccc(O)c(CCCCc2ccc(O)c(O)c2)c1 [1-(3',4'-dihydroxyphenyl)-4-(2',5'-dihydroxyphenyl)-butane]
- effectiveness against human breast adenocarcinoma [1]: particularly effective
